Reference: patent publication US8916570B2 (The United States of America, as represented by the …, priority 2008, dated 2014)
Changes are numbered by the printed parent chain. Like-named read-outs stand apart in the source and are kept apart here. Marks after values point to notes of the source that are not given here.

Assays:
hA1AR = molecular target: T1, hA1AR (Homo sapiens, UniProt P30542); conditions: values from the literature (footnotes c, d); read-out: Affinity (Ki, nM) hA1; cited from earlier work
T1 construct: expressed in transfected cells; host or cells: CHO
T1 sequence (P30542 1-326): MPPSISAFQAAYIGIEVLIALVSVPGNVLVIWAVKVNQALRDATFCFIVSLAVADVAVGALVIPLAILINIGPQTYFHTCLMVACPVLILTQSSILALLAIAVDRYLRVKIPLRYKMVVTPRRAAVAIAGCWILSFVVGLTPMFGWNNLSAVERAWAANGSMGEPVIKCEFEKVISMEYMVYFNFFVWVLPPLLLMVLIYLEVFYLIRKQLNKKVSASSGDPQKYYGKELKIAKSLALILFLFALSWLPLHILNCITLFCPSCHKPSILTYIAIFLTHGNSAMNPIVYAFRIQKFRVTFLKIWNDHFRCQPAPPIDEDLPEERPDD

hA2AAR = molecular target: T2, hA2AAR (Homo sapiens, UniProt P29274); conditions: cited from earlier work; for Ki: values from the literature (footnotes c, d), read-out: Affinity (Ki, nM) hA2A
T2 construct: expressed in transfected cells

rat A3 AR [1] = molecular target: T3, rat A3 AR (Rattus norvegicus, UniProt P28647); conditions: species R (rat); data from Tchilibon et al. / Lee et al.; cited from earlier work
T3 sequence (P28647 1-320): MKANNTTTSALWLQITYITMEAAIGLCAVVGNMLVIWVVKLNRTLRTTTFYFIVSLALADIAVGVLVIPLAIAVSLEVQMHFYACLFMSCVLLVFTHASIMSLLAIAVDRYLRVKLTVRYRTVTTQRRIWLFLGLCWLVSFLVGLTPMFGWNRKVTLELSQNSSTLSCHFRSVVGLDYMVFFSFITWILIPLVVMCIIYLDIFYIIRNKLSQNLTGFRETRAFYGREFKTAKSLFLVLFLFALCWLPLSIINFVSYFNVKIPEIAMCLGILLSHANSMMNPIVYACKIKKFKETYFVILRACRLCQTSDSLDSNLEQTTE

mA3AR = molecular target: T4, mA3AR (Mus musculus, UniProt Q61618); conditions: values from Melman et al.; read-out: Affinity (Ki, nM) mA3; cited from earlier work
T4 construct: expressed in transfected cells
T4 sequence (Q61618 1-319): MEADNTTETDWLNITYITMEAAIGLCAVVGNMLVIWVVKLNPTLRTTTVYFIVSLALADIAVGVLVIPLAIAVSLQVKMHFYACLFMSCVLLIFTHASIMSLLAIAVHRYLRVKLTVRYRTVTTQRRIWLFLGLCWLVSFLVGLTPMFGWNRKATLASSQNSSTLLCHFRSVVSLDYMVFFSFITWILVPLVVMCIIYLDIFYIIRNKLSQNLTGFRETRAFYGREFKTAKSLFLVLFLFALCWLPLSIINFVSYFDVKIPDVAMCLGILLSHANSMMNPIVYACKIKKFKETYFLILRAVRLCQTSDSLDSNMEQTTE

rat A2A AR = rat A2A AR (Rattus norvegicus, UniProt P30543); conditions: species R (rat); data from Lee et al.; cited from earlier work
[2] = molecular target: T5, human A1 adenosine receptor (Homo sapiens, UniProt P30542); assay: Radioligand binding, human A1 AR, CHO membranes (Table 1); conditions: read-out: A1 Ki; species H (human)
T5 sequence (P30542 1-326): T1 sequence (P30542 1-326)

[3] = molecular target: T6, mouse A1 adenosine receptor (Mus musculus, UniProt Q60612); assay: Competition radioligand binding, mouse A1 AR, HEK293 membranes (Table 1); conditions: read-out: A1 Ki; species M (mouse); [125I]I-AB-MECA; mean ± SEM
T6 sequence (Q60612 1-326): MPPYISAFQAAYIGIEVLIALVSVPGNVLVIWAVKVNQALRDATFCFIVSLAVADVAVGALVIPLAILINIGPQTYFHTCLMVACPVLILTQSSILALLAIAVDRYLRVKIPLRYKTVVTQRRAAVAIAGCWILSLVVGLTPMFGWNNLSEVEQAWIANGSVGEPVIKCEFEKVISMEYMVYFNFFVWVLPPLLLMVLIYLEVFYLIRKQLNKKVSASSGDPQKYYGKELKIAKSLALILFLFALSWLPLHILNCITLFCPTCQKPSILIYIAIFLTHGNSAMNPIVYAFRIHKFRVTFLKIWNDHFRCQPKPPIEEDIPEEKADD

rat A1 AR = molecular target: T7, rat A1 AR (Rattus norvegicus, UniProt P25099); conditions: species R (rat); data from Lee et al.; cited from earlier work
T7 sequence (P25099 1-326): T6 sequence (Q60612 1-326) with E151V, A155D, I157R, E316D, I319L, D325E

mA1AR = molecular target: T8, mA1AR (Mus musculus, UniProt Q60612); conditions: values from Melman et al.; read-out: Affinity (Ki, nM) mA1; cited from earlier work
T8 construct: expressed in transfected cells
T8 sequence (Q60612 1-326): T6 sequence (Q60612 1-326)

[4] = molecular target: T9, human A2A adenosine receptor (Homo sapiens, UniProt P29274); parameters: expressed in transfected cells; conditions: species H (human), cited from earlier work; for Ki: data from Tchilibon et al. or Kim et al.
[5] = molecular target: T10, mouse A3 adenosine receptor (Mus musculus, UniProt Q61618); assay: Competition radioligand binding, mouse A3 AR, HEK293 membranes (Table 1); conditions: for Ki: read-out: A3 Ki, species M (mouse), [125I]I-AB-MECA; for Selectivity A1/A3: mouse
T10 sequence (Q61618 1-319): T4 sequence (Q61618 1-319)

mA2AAR = molecular target: T11, mA2AAR (Mus musculus, UniProt Q60613); conditions: values from Melman et al.; read-out: Affinity (Ki, nM) mA2A; cited from earlier work
T11 construct: expressed in transfected cells

[6] = molecular target: mouse A2A adenosine receptor (Mus musculus, UniProt Q60613); assay: Competition radioligand binding, mouse A2A AR, HEK293 membranes (Table 1); conditions: read-out: A2A Ki; species M (mouse); [3H]CGS21680
[7] = molecular target: T5, human A1 adenosine receptor; parameters: expressed in transfected cells; host or cells: CHO; conditions: species H (human); data from Tchilibon et al. or Kim et al.; cited from earlier work
rat A3 AR [8] = molecular target: T3, rat A3 AR; assay: Radioligand binding, rat A3 AR (Table 1); conditions: species R (rat)
hA3AR [9] = molecular target: T12, hA3AR (Homo sapiens, UniProt P0DMS8); conditions: at 10 μM vs maximal effect of 51 (= 100%); values from the literature; cited from earlier work
T12 construct: expressed in transfected cells; host or cells: CHO
T12 sequence (P0DMS8 1-318): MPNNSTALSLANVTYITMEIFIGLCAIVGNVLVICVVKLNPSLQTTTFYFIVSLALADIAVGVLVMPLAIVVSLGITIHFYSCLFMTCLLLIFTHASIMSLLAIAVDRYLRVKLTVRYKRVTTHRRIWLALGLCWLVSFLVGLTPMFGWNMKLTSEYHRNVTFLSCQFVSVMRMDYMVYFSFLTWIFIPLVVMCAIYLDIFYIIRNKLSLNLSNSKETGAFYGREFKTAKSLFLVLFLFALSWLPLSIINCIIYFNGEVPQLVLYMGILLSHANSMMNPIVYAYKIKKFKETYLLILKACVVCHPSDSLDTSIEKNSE

[10] = molecular target: T9, human A2A adenosine receptor; assay: Radioligand binding, human A2A AR (Table 1); conditions: read-out: A2A Ki; species H (human)
[11] = molecular target: T13, human A3 adenosine receptor (Homo sapiens, UniProt P0DMS8); parameters: expressed in transfected cells; host or cells: CHO; conditions: species H (human); data from Tchilibon et al. or Kim et al.; cited from earlier work
T13 sequence (P0DMS8 1-318): T12 sequence (P0DMS8 1-318)

[12] = molecular target: T13, human A3 adenosine receptor; assay: [125I]I-AB-MECA binding, human A3 AR, CHO membranes (Table 1)
human A3AR = molecular target: T14, human A3AR (Homo sapiens, UniProt P0DMS8); assay: Inhibition of forskolin-stimulated cyclic AMP production in AR transfected CHO cells (Table 1); assay type: cell-based; conditions: at 10 μM, in comparison to maximal effect of full agonist 5′-N-ethylcarboxamidoadenosine at 100%
T14 construct: expressed in transfected cells; host or cells: CHO
T14 sequence (P0DMS8 1-318): T12 sequence (P0DMS8 1-318)

hA3AR [13] = molecular target: T12, hA3AR; conditions: values from the literature (footnotes c, d); read-out: Affinity (Ki, nM) hA3; cited from earlier work
human A2A receptors = molecular target: T15, human A2A receptors (Homo sapiens, UniProt P29274); assay: Binding at human A2A receptor, HEK-293 membranes (Example 4); conditions: read-out: Affinity (Ki nM) A2A
T15 construct: expressed in transfected cells
Source text: (§1) The reaction was terminated by filtration with GF/B filters.

human A3 receptor = molecular target: T16, human A3 receptor (Homo sapiens, UniProt P0DMS8); assay: Binding assay at the human A3 receptor, CHO membranes (Example 4)
T16 sequence (P0DMS8 1-318): T12 sequence (P0DMS8 1-318)
Procedure: Cell culture and membrane preparation: CHO (Chinese hamster ovary) cells expressing the recombinant human A3AR were cultured in DMEM (Dulbecco's modified Eagle's medium) supplemented with 10% fetal bovine serum, 100 units/mL penicillin, 100 μg/mL streptomycin, 2 μmol/mL glutamine and 800 μg/mL geneticin. The CHO cells expressing rat A3ARs were cultured in DMEM and F12 (1:1). Cells were harvested by trypsinization. After homogenization and suspension, cell membranes were centrifuged at 500 g for 10 min, and the pellet was re-suspended in 50 mM Tris.HCl buffer (pH 8.0) containing 10 mM MgCl2, 1 mM EDTA and 0.1 mg/mL CHAPS (3[(3-cholamidopropyl)dimethylammonio]-propanesulfonic acid). […] The protein concentration was measured using the Bradford assay.
The mixtures were incubated at 37° C. for 60 min. Binding reactions were terminated by filtration through Whatman GF/B filters under reduced pressure using a MT-24 cell harvester (Brandell, Gaithersburgh, Md., USA). Filters were washed three times with 9 mL ice-cold buffer. Radioactivity was determined in a Beckman 5500B γ-counter.

human A1 receptors = molecular target: T17, human A1 receptors (Homo sapiens, UniProt P30542); assay: Binding at human A1 receptor, CHO membranes (Example 4); conditions: read-out: Affinity (Ki nM) A1
T17 construct: expressed in transfected cells; host or cells: CHO
T17 sequence (P30542 1-326): T1 sequence (P30542 1-326)
Source text: as §1

T2 sequence (P29274 whole entry): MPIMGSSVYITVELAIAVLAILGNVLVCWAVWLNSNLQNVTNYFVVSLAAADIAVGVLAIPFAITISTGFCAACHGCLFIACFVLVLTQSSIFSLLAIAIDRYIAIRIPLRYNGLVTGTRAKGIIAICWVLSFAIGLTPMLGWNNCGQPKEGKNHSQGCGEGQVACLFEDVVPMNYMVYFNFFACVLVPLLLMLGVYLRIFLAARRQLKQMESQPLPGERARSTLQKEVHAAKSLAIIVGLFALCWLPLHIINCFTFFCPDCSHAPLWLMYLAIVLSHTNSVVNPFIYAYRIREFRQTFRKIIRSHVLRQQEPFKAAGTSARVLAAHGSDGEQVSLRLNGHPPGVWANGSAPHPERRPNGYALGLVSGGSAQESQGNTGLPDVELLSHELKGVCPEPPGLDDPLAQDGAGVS
T9 sequence (P29274 whole entry): as above
mouse A2A adenosine receptor, sequence (Q60613 whole entry): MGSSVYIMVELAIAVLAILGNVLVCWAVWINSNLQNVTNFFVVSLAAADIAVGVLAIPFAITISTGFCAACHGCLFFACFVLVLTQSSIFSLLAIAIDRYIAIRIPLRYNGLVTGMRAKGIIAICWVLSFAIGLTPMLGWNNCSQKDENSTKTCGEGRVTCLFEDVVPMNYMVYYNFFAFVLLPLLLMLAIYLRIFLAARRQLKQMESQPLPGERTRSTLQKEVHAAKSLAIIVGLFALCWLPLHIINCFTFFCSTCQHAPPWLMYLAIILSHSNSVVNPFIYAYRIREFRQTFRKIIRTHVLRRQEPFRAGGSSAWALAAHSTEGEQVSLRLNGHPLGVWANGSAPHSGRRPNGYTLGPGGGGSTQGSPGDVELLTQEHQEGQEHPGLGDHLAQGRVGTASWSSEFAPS
T15 sequence (P29274 whole entry): as the sequence (P29274 whole entry) above
T11 sequence (Q60613 whole entry): as the sequence (Q60613 whole entry) above
rat A2A AR, sequence (P30543 whole entry): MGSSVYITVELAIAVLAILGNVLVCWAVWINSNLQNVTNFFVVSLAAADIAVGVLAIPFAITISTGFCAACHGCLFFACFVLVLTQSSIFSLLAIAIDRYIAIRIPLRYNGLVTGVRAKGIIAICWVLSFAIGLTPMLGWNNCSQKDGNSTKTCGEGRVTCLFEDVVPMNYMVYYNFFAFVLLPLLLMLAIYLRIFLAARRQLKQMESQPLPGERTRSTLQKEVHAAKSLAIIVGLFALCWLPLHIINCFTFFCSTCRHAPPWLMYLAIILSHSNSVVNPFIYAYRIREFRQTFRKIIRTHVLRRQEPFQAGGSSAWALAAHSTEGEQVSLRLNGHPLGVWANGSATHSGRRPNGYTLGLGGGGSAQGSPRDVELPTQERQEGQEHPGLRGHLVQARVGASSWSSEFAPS

SMILES	Ki (hA1AR) [nM]	Ki (rat A3 AR [1]) [nM]	Ki (mA3AR) [nM]	Ki [2] [nM]	Ki [3] [nM]	Ki (mA1AR) [nM]	Ki [5] [nM]	Ki (hA2AAR) [nM]	Ki [6] [nM]	Ki [4] [nM]	Ki [7] [nM]	further results
CNC(=O)[C@@]12C[C@@H]1[C@@H](n1cnc3c(NC)nc(Cl)nc31)[C@H](O)[C@@H]2O [Compound 12]	2100 ± 1700	160 ± 30	49 ± 3.9	2010 ± 1700	55.3 ± 6	55.3 ± 6	49 ± 3.9					% inhibition hA2A (hA2AAR; inhibition of radioligand binding at 10 μM, values from the literature): (6%); Ki (rat A2A AR): > 10000 nM; Ki (rat A1 AR): 805 nM; A2A % inhib. ([4]; percent inhibition at 10 μM, data from Tchilibon et al.): (6%)^d,f
CNC(=O)[C@@]12C[C@@H]1[C@@H](n1cnc3c(NCc4cccc(Cl)c4)nc(Cl)nc31)[C@H](O)[C@@H]2O [Compound 13]	260 ± 60	1	1.49 ± 0.46		15.3 ± 5.8	15.3 ± 5.8	1.49 ± 0.46	2300 ± 100	10400 ± 1700	2300 ± 100	260 ± 60	Ki (mA2AAR): 10400 nM
CNC(=O)[C@@]12C[C@@H]1[C@@H](n1cnc3c(NCc4cccc(Br)c4)nc(Cl)nc31)[C@H](O)[C@@H]2O [Compound 14]					8.79 ± 0.12		0.9 ± 0.22		6390 ± 870	1300	270	Selectivity A1/A3 [5]: 9.8; Ki (rat A3 AR [8]): 0.76 nM
CNC(=O)[C@@]12C[C@@H]1[C@@H](n1cnc3c(NCc4cccc(I)c4)nc(Cl)nc31)[C@H](O)[C@@H]2O [Compound 15]	136 ± 22		0.8 ± 0.14	136 ± 22	7.32 ± 1.5	7.32 ± 1.5	0.8 ± 0.14	784 ± 97	5350 ± 860			Ki (mA2AAR): 5350 nM; Ki (rat A2A AR): 1660 nM; Ki (rat A1 AR): 83.9 nM; % Efficacy hA3 (hA3AR [9]): 100%; Ki (rat A3 AR [8]): 1.1 nM; Ki [10]: 784 ± 97 nM
CNC(=O)[C@@]12C[C@@H]1[C@@H](n1cnc3c(NCc4cc(OC)ccc4OC)nc(Cl)nc31)[C@H](O)[C@@H]2O [Compound 17]		0.87			29 ± 3.3		1.72 ± 0.04		44700 ± 5700	10000	1600	Ki [11]: 1.4 nM; Selectivity A1/A3 [5]: 17
CNC(=O)[C@@]12C[C@@H]1[C@@H](n1cnc3c(NCc4cccc(I)c4)ncnc31)[C@H](O)[C@@H]2O [Compound 31]	700 ± 270			700 ± 270				6200 ± 100				Selectivity A1/A3 ([12]; human): up to 1900; Ki ([12]; read-out: A3 Ki, species H (human)): 2.4 ± 0.5 nM; % Efficacy at the human A3 AR (human A3AR): 100^j %; Ki (hA3AR [13]): 2.4 ± 0.5 nM; % Efficacy hA3 (hA3AR [9]): 100%; Ki [10]: 6200 ± 100 nM
OC1C(O)C(n2cnc3c(NCc4cccc(Br)c4)nc(Cl)nc32)C2CC12 (stereo not drawn) [Compound 109b, (1′R,2′R,3′S, 4′R,5′S)-4′42-Chloro-6-(3-bromobenzylamino)purine-1-2′,3′-O-dihydroxybicyclo-[3.1.0]hexane]												Ki (human A2A receptors): 1600 nM
O[C@@H]1[C@H](O)[C@@H]2C[C@@H]2[C@H]1n1cnc2c(Nc3cccc4ccccc34)nc(Cl)nc21 [Compound 110b, (1′R,2′R,3′S, 4′R,5′S)-4′-[2-Chloro-6-(1-naphthylamino)purine]-2′,3′-O-dihydroxybicyclo[3.1.0]hexane]												binding to the A3AR (in words) (human A3 receptor): nanomolar binding affinity
COc1ccc(OC)c(CNc2nc(Cl)nc3c2ncn3C2C(O)C(O)C3CC32)c1 (stereo not drawn) [Compound 111b, (1′R,2′R,3′S, 4′R,5′S)-4′-[2-Chloro-6-(2,5-dimethoxybenzylamino)purine]-2′,3′-O-dihydroxybicyclo-[3.1.0]hexane]												Ki (human A1 receptors): 3000 nM
OC1C(O)C(n2cnc3c(NC4CC4c4ccccc4)nc(Cl)nc32)C2CC12 (stereo not drawn) [Compound 113b, (1′R,2′R,3′S, 4′R,5′S)-4′-[2-Chloro-6-(trans-2-phenylcyclopropylamino)purine]-2′,3′-O-dihydroxybicyclo-[3.1.0]hexane]												Ki (human A1 receptors): 1790 nM; Ki (human A2A receptors): 2010 nM; binding to the A3AR (in words) (human A3 receptor): nanomolar binding affinity
